Laboratory results from patent US11345711B2, “8,9-dihydroimidazo[1,2-a]pyrimido[5,4-e]pyrimidin-5(6H)-ones” (IMPACT THERAPEUTICS (SHANGHAI), INC, priority 2016, dated 2022).
pIC50: −log10 of the molar value. Read-outs that look alike come from different tables or passages of the source.

Legend:
LoVo cells = assay: MTT based cell viability assay on LoVo cells; conditions: Homo sapiens, LoVo, 72 h, 3 d, read-out: IC50, growth inhibition of LoVo cells
In short: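 Inhibition of LoVo proliferation was derived as IC50 from a sigmoidal dose-response fit of cell survival. Readout was MTT (0.5 mg/mL, 4 h) with absorbance at 552/630/690 nm, after 3-day treatment at 37 °C. Eight-point series from 10 μM to 0.01 μM, DMSO control, 1% DMSO final.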

NCI-H1299 cells = assay: MTT based cell viability assay on NCI-H1299 cells; conditions: Homo sapiens, read-out: IC50, growth inhibition of NCI-H1299 cells
In short: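 Viability read-out was MTT reduction (0.5 mg/mL, 4 h, absorbance 552/630/690 nm) after 3-day compound exposure at 37 °C of NCI-H1299 cells seeded at 1000 per well. Dilutions spanned 10 μM–0.01 μM in DMSO, final DMSO 1‰. Survival-versus-concentration curves were fitted sigmoidally to give IC50.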

Wee1 (h) = Wee1 (h) (Homo sapiens, UniProt P30291); assay: Wee1 kinase (h) detection method, [γ-33P]-ATP filter assay; type: biochemical
Chain of Wee1 (h) (P30291 whole entry): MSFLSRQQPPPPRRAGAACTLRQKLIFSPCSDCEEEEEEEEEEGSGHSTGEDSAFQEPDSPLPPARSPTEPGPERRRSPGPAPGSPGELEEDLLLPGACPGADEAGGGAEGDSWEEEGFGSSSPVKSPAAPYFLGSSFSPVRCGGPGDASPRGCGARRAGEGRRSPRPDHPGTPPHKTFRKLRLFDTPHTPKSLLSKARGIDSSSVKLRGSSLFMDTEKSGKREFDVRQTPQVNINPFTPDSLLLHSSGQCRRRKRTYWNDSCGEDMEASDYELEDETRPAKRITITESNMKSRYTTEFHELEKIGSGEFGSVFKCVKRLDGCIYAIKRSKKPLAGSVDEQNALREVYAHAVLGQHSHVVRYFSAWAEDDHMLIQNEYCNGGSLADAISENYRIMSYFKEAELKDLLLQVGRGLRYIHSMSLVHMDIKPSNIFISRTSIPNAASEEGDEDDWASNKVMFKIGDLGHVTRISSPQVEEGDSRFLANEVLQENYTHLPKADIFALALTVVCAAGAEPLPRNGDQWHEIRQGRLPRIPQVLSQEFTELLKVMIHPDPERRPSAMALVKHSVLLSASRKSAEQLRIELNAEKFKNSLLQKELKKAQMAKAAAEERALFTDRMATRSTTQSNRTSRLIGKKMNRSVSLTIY

Compound	pIC50 (LoVo cells)	pIC50 (NCI-H1299 cells; NCI-H1299, NCI-H1299 cells)	Inh. (%) of Wee1 kinase enzyme activity (Wee1 (h); C 1 μm compound)	Inh. (%) of Wee1 kinase enzyme activity (Wee1 (h); C 0.01 μm compound)	Inh. (%) of Wee1 kinase enzyme activity (Wee1 (h); C 0.1 μm compound)	pIC50 (NCI-H1299 cells; NCI-H1299 cells)
Cc1cc(Nc2ncc3c(n2)N2CCN=C2N(c2c(Cl)cccc2C(F)(F)F)C3=O)ccc1N1CCN(C)CC1 [Example 80, 6-(2-Chloro-6-(trifluoromethyl)phenyl)-2-((3-methyl-4-(4-methylpiperazin-1-yl)phenyl)amino)-8,9-dihydroimidazo[1,2-a]pyrimido[5,4-e]pyrimidin-5(6H)-one]	6.27	6.01	80%			
Cc1cc(Nc2ncc3c(n2)N2CCN=C2N(c2c(C)cccc2Cl)C3=O)ccc1N1CCN(C)CC1 [Example 81, 6-(2-Chloro-6-methylphenyl)-2-((3-methyl-4-(4-methylpiperazin-1-yl)phenyl)amino)-8,9-dihydroimidazo[1,2-a]pyrimido[5,4-e]pyrimidin-5(6H)-one]	6.87	6.51	89%	7%	72%	
COc1cccc(Cl)c1N1C(=O)c2cnc(Nc3ccc(N4CCN(C)CC4)c(C)c3)nc2N2CCN=C21 [Example 82, 6-(2-Chloro-6-methoxyphenyl)-2-((3-methyl-4-(4-methylpiperazin-1-yl)phenyl)amino)-8,9-dihydroimidazo[1,2-a]pyrimido[5,4-e]pyrimidin-5(6H)-one]	6.02		83%			5.92
Cc1cccc(C)c1N1C(=O)c2cnc(Nc3ccc(N4CCN(C)CC4)cc3)nc2N2CCN=C21 [Example 83, 6-(2,6-Dimethylphenyl)-2-((4-(4-methylpiperazin-1-yl)phenyl)amino)-8,9-dihydroimidazo[1,2-a]pyrimido[5,4-e]pyrimidin-5(6H)-one]	5.54		94%	15%	59%	5.84
Cc1cccc(C)c1N1C(=O)c2cnc(Nc3ccc(N4C[C@@H](C)N(C)[C@@H](C)C4)cc3)nc2N2CCN=C21 [Example 84, 6-(2,6-Dimethylphenyl)-2-((4-((3S,5R)-3,4,5-trimethylpiperazin-1-yl)phenyl)amino)-8,9-dihydroimidazo[1,2-a]pyrimido[5,4-e]pyrimidin-5(6H)-one]	5.51		93%	18%	49%	6.08
CN1CCN(c2ccc(Nc3ncc4c(n3)N3CCN=C3N(c3ccc(Cl)cc3)C4=O)cc2)CC1 [Example 85, 6-(4-Chlorophenyl)-2-((4-(4-methylpiperazin-1-yl)phenyl)amino)-8,9-dihydroimidazo[1,2-a]pyrimido[5,4-e]pyrimidin-5(6H)-one]	< 4.00		17%			< 5.00
CN1CCN(c2ccc(Nc3ncc4c(n3)N3CCN=C3N(c3cccc(Cl)c3)C4=O)cc2)CC1 [Example 86, 6-(3-Chlorophenyl)-2-((4-(4-methylpiperazin-1-yl)phenyl)amino)-8,9-dihydroimidazo[1,2-a]pyrimido[5,4-e]pyrimidin-5(6H)-one]	< 4.00		13%			< 5.00
CN1CCN(c2ccc(Nc3ncc4c(n3)N3CCN=C3N(c3ccc(Cl)cc3Cl)C4=O)cc2)CC1 [Example 87, 6-(2,4-Dichlorophenyl)-2-((4-(4-methylpiperazin-1-yl)phenyl)amino)-8,9-dihydroimidazo[1,2-a]pyrimido[5,4-e]pyrimidin-5(6H)-one]	< 4.00		75%			< 5.00
CN1CCN(c2ccc(Nc3ncc4c(n3)N3CCN=C3N(c3ccc(F)cc3Cl)C4=O)cc2)CC1 [Example 88, 6-(2-Chloro-4-fluorophenyl)-2-((4-(4-methylpiperazin-1-yl)phenyl)amino)-8,9-dihydroimidazo[1,2-a]pyrimido[5,4-e]pyrimidin-5(6H)-one]	< 4.00		75%			< 5.52
CN1CCN(c2ccc(Nc3ncc4c(n3)N3CCN=C3N(c3cccc(F)c3Cl)C4=O)cc2)CC1 [Example 89, 6-(2-Chloro-3-fluorophenyl)-2-((4-(4-methylpiperazin-1-yl)phenyl)amino)-8,9-dihydroimidazo[1,2-a]pyrimido[5,4-e]pyrimidin-5(6H)-one]	6.66		89%			6.02
CN1CCN(c2ccc(Nc3ncc4c(n3)N3CCN=C3N(c3cc(Cl)ccc3Cl)C4=O)cc2)CC1 [Example 90, 6-(2,5-Dichlorophenyl)-2-((4-(4-methylpiperazin-1-yl)phenyl)amino)-8,9-dihydroimidazo[1,2-a]pyrimido[5,4-e]pyrimidin-5(6H)-one]	5.88		29%			< 5.00
CN1CCN(c2ccc(Nc3ncc4c(n3)N3CCN=C3N(c3cccc(Cl)c3Cl)C4=O)cc2)CC1 [Example 91, 6-(2,3-Dichlorophenyl)-2-((4-(4-methylpiperazin-1-yl)phenyl)amino)-8,9-dihydroimidazo[1,2-a]pyrimido[5,4-e]pyrimidin-5(6H)-one]	6.73		75%			5.63
CN1CCN(c2ccc(Nc3ncc4c(n3)N3CCN=C3N(c3ncccn3)C4=O)cc2)CC1 [Example 92, 6-(Pyrimidin-2-yl)-2-((4-(4-methylpiperazin-1-yl)phenyl)amino)-8,9-dihydroimidazo[1,2-a]pyrimido[5,4-e]pyrimidin-5(6H)-one]	< 4.00		1%			< 5.00
CN1CCN(c2ccc(Nc3ncc4c(n3)N3CCN=C3NC4=O)cc2)CC1 [Example 93, 2-((4-(4-Methylpiperazin-1-yl)phenyl)amino)-8,9-dihydroimidazo[1,2-a]pyrimido[5,4-e]pyrimidin-5(6H)-one]	< 4.00		0%			< 5.00
CN1CCN(c2ccc(Nc3ncc4c(n3)N3CCN=C3N(C3CCC3)C4=O)cc2)CC1 [Example 94, 6-Cyclobutyl-2-((4-(4-methylpiperazin-1-yl)phenyl)amino)-8,9-dihydroimidazo[1,2-a]pyrimido[5,4-e]pyrimidin-5(6H)-one]	5.72		19%			5.62
CN1CCN(c2ccc(Nc3ncc4c(n3)N3CCN=C3N(C3CCCC3)C4=O)cc2)CC1 [Example 95, 6-Cyclopentyl-2-((4-(4-methylpiperazin-1-yl)phenyl)amino)-8,9-dihydroimidazo[1,2-a]pyrimido[5,4-e]pyrimidin-5(6H)-one]	5.72		8%			5.67
CN1CCN(c2ccc(Nc3ncc4c(n3)N3CCN=C3N(c3ccccc3)C4=O)cc2)CC1 [Example 96, 6-Phenyl-2-((4-(4-methylpiperazin-1-yl)phenyl)amino)-8,9-dihydroimidazo[1,2-a]pyrimido[5,4-e]pyrimidin-5(6H)-one]	< 4.00		29%			< 5.00
CN1CCN(c2ccc(Nc3ncc4c(n3)N3CCN=C3N(c3ccccn3)C4=O)cc2)CC1 [Example 97, 6-(Pyridin-2-yl)-2-((4-(4-methylpiperazin-1-yl)phenyl)amino)-8,9-dihydroimidazo[1,2-a]pyrimido[5,4-e]pyrimidin-5(6H)-one]	< 4.00		9%			< 5.00
